A melting point compilation (Tetko et al.; mined from patent text by program, amines drawn as free bases though some values may be those of a salt)

| melting point | Structure (SMILES) |
| --- | --- |
| 186 to 194 °C | O=Cc1cn(C(c2ccccc2)(c2ccccc2)c2ccccc2)cn1 |
| 66 to 68 °C | COCCNCc1ccccc1Oc1ccc(-c2cn(C3CCOC3)c3ncnc(N)c23)cc1 (centres undefined) |
| 84 to 89 °C | O=C(O)CCCCCCc1ccc2ccccc2c1[N+](=O)[O-] |
| 183 to 184 °C | CC(C)(C)OC(=O)N1CCN(c2cccc3ccc(Nc4ncccc4N)cc23)CC1 |
| 108 to 114 °C | Cc1onc(NS(=O)(=O)c2ccccc2-c2ccc(-c3ncccn3)cc2Cn2ccc(C(F)(F)F)n2)c1C |
| 179 °C | O=C(NC1CCOCC1)c1ccc(-c2cc(-c3c(-c4ccccn4)nc4ccccn34)ccn2)cc1 |
| 227 to 228 °C | CC(=O)Nc1csc(-c2ccc3c(=O)n(CC(C)C)c(CNC(=O)OC(C)(C)C)c(-c4ccccc4)c3c2)n1 |
| 92 to 94 °C | CCCCOc1ccc(NC(=O)CNc2ccccc2F)cc1 |
| 205 to 207 °C | Oc1ccc2ccc(OCc3nc4ccccc4s3)cc2c1 |
| 128 to 129 °C | CCOC(=O)c1cn(C2CC2)c2c(C)c(N3CCN(Cc4ccccc4)C(C)C3)c(F)c(C)c2c1=O (centres undefined) |
| 196 to 198 °C | CCN(CC)C(=O)Nc1c(C(=O)c2ccccc2)[nH]c2cc(Cl)ccc12 |
| 123 to 127 °C | CCCCCCCCCCCC(=O)N[C@@H](CC(C)C)C(=O)N[C@@H](C(C)C)[C@@H](O)c1c(-c2ccccc2)c1=O |
| 128 to 131 °C | O=C(O)[C@H](CCc1ccccc1)NS(=O)(=O)c1ccc2c(c1)Cc1ccccc1-2 |
| 153 to 155 °C | CCOC(=O)C(=Cc1ccc(-c2nc3ccc(O)cc3o2)cc1)C(=O)OCC |
| 112 to 115 °C | O=C(Nc1ccc(C(=O)N2Cc3ccccc3Sc3ccccc32)cc1)c1ccc(Cl)cc1Cl |
| 145 to 147 °C | Nc1ccc2c(c1)CC(NS(=O)(=O)c1ccc(Cl)cc1)C2 (centres undefined) |
| 151 to 152 °C | CCCN1CCc2ccc(C(=O)CCC(=O)N3CCC(c4ccc(Cl)cc4)CC3)cc2CC1 |
| 105 to 106 °C | COC(=O)[C@@H](Cc1ccccc1)NC(=O)OCc1cc2cc(-c3ccsc3)ccc2o1 |
| 102 to 110 °C | Cc1ccc2cccc(OCc3c(C)ccc(N(C)C(=O)CN4C(=O)c5ccccc5C4=O)c3C)c2n1 |
| 209 to 210 °C | Cc1c(C)c2c(c(C)c1NC(=O)CC(C)(C)C)C(c1ccc(C(C)C)cc1)C1(CCCC1)O2 (centres undefined) |
| 240 to 241 °C | CNC(=O)c1cc(-c2ccc(OC)cc2)nn(CC(=O)NCCO)c1=O |
| 207 °C | CCCCc1[nH]c(CC)nc(=O)c1Cc1ccc(-c2ccccc2C(=O)O)cc1 |
| 111 to 120 °C | CN1C(=O)CC[C@]2(C)c3ccc(-c4ccccc4Cl)cc3CC[C@@H]12 |
| 159 to 160 °C | CCN1C(=O)C(C)(C)C(=O)N(C)c2cc(CN(CCn3c(=O)ccc4ccccc43)Cc3ccc(C)nc3C)ccc21 |
| 200 to 220 °C | CCOC(=O)N1CCc2c([nH]c3ccc(Cl)cc23)C1C1(C(N)=O)CCC1 (centres undefined) |
| 132 to 134 °C | CCc1nn2c(-c3ccccc3)ccnc2c1C#N |
| 162 to 165 °C | CC(C)[C@H](NC(=O)CS)C(=O)N1CCC[C@H]1C(=O)O |

| melting point | Structure (SMILES) |
| --- | --- |
| 179 to 182 °C | CC(C)/C=C(/C(=O)O)c1ccc(S(C)(=O)=O)cc1 |
| 188 to 191 °C | O=C(NC(SC(=O)c1ccccc1)C(=O)NC(Cc1c[nH]c2ccccc12)C(=O)O)c1ccccc1 (centres undefined) |
| 180 to 182 °C | COc1ccc(S(=O)(=O)Nc2cccc(C)c2NC(=O)c2ccccn2)cc1 |
| 142 to 143 °C | Cc1oc(-c2ccccc2)nc1COc1ccc([N+](=O)[O-])cn1 |
| 158 to 160 °C | O=S(=O)(Nc1ccc(Cl)c(Cl)c1)c1cc(S(=O)(=O)Nc2ccc(Cl)c(Cl)c2)c2cc(O)ccc2c1 |
| 176 to 179 °C | O=C(/C=C/c1ccc(C(F)(F)F)cc1)Nc1ccc2c(c1)NCC(CO)C2 (centres undefined) |
| 124 to 126 °C | COC(=O)N=C1SCC(=O)N1c1c(-c2ccccc2)csc1NC(=O)CN(C)C |
| 187 to 189 °C | CC(C)CC(S)C(=O)NC1(C(=O)NC(CC2(c3cccc4ccccc34)C=CC(c3ccccc3)=CC2)C(=O)O)CCCC1 (centres undefined) |
| 104 to 105 °C | CCOC(=O)CCc1cn(Cc2ccc(OCc3cn4c(-c5ccccc5)cccc4n3)cc2)nc1OCC |
| 132 to 135 °C | COCOc1ccccc1-c1ccc(-c2ccc(C(=O)O)cc2)cc1-c1ccc2c(c1)C(C)(C)CCC2(C)C |
| 158 to 160 °C | Clc1ccc2nc(NC3CCCCC3)n3nc(-c4ccco4)nc3c2c1 |
| 151 to 152 °C | N=C(c1ccc(Cl)cc1)c1cc2ccccc2cn1 |
| 220 to 222 °C | CC(C(=O)O)c1ccc(N2CC3=C(CC=CC3)C2=O)cc1 (centres undefined) |
| 95 to 100 °C | CS(=O)(=O)c1ccc(C(CC2CCCC2)C(=O)Nc2ccc3ccccc3n2)cc1Br (centres undefined) |
| 158 to 160 °C | COc1ccc(Nc2nccc(-c3cccs3)n2)cc1 |
| 126 to 145 °C | COc1cc2c(cc1Nc1ncc(Cl)c(N[C@H]3[C@@H](C(N)=O)[C@@H]4C=C[C@H]3C4)n1)CCN(CC(=O)N1CCCC1)CC2 |
| 224 °C | C[C@H]([C@H](O)c1ccc2c(c1)OC(c1ccccc1)(c1ccccc1)O2)N1CCC(O)(c2ccccc2)CC1 (relative stereo) |
| 247 to 248 °C | CC(C)Oc1ccc(C(=O)[NH+]([O-])c2c(Cl)cncc2Cl)c2c1oc1ccccc12 (centres undefined) |
| 189 to 191 °C | O=C1N(Cc2ccc3nsnc3c2)c2ccccc2C12COc1cc3c(cc12)OCCO3 (centres undefined) |
| 101 to 104 °C | CC(C)(C)OC(=O)NC(Cc1ccc(OCc2ccccc2)cc1)C(=O)NCC(=O)OCc1ccccc1 (centres undefined) |
| 27 to 28 °C | CN(C)CCCCCCOc1ccc(C(=O)CCc2ccccc2)cc1 |
| 98 to 99 °C | CNCc1cn(S(=O)(=O)c2cccnc2)c(-c2ccccc2)c1F |
| 130 to 140 °C | COCCOc1cc(C)nc(NC(=O)NS(=O)(=O)c2ccccc2Cl)n1 |
| 68 °C | CCOC(=O)c1cc(-c2ccccc2)oc1-c1ccc(OC)c(OC)c1 |
| 143 to 144 °C | O=C(O)COc1ccc(SCc2ccc(OCc3ccc(C(F)(F)F)cc3)cc2)c2c1CCCO2 |
| 201 to 203 °C | O=C(Cc1c(-c2ccccc2)c2cc(CN3CCN(c4ccccc4)CC3)c(Cl)cc2oc1=O)Nc1ccc(Cl)cc1C(F)(F)F |
| 182 °C | CCOCCN(c1cccc2cc(C(N)=S)[nH]c12)S(=O)(=O)c1cccs1 |

The remaining lines, values behind:

| Structure (SMILES) | melting point |
| --- | --- |
| Cc1[nH]c(=O)c2cc3nc(-c4ccncc4)[nH]c3cc2c1C | > 300 °C |
| CCC(C)CNN(NCC(C)CC)C(=O)c1cc(NC(=O)CCl)cc(C(N)=O)c1 (centres undefined) | 160 to 162 °C |
| CCCCCSc1ccc(-c2ncc(CCCCC)cn2)cc1 | 52.8 °C |
| CCCCCCCCCCCCc1ccc2cccnc2c1O | 88.5 to 90 °C |
| CN(C)c1cccc2c1C1=NCCN1c1c(-c3noc(C4CC4)n3)ncn1-2 | 148 to 150 °C |
| CON1CCC2(CC1)C(O)=C(c1cc(C)c(C)cc1Cl)C(=O)N2C | 191 to 192 °C |
| CCOC(=O)Nc1c(OC)cc(Cc2cnc(N)nc2N)cc1OC | 192 to 193 °C |
| O=C(Nc1cnc(-n2nc(C(F)(F)F)cc2C2CC2)nc1)c1c(F)cccc1F | 280 to 281 °C |
| CC(C)(C)C(O)CN1C(=O)C(N)C(=O)N(c2ccccc2F)c2ccccc21 (centres undefined) | 104 to 105 °C |
| CCCn1c(=O)n2c(=O)[nH]nc2c2c1ncn2C | 299 to 301 °C |
| C[C@@H](O)CNc1c(-c2ccc(F)cc2)c(=O)c1=O | 235 to 237 °C |
| Cn1c(=O)c2c(N)nc(N)nc2n(C)c1=O | > 300 °C |
| Cc1c(F)c(N2CCC(n3ccnn3)CC2)c(F)c2c1c(=O)c(C(=O)O)cn2C1CC1 | 261 to 263 °C |
| CCN1c2ncc(CCc3cccc(C)c3)cc2C(=O)N(C)c2cccnc21 | 103 to 104 °C |
| CCOC(=O)c1cc(CC(C)(C)NC(=O)OC(C)(C)C)n(CCOC)n1 | 92 to 93 °C |
| O=C(O)c1ccc(SCC(=O)C23CC4CC(CC(C4)C2)C3)nc1 | 174 to 176 °C |
| CC12CCC(=O)C=C1CCC1C2=CCC2(C)C1CCC2(O)C#N (centres undefined) | 225 to 228 °C |
| CNC(=O)c1cc(N)cc(N2CCOCC2)c1 | 201 to 204 °C |
| CCOC(=O)c1nc2c(=O)[nH]c3cc(C(F)(F)F)ccc3n2c1CP(=O)(O)O | > 250 °C |
| Cc1cccc(SCn2cc(F)cnc2=O)c1 | 124 °C |

| Structure (SMILES) | melting point |
| --- | --- |
| C#CCOC(=O)c1ccc(O)c(O)c1 | 127 to 129 °C |
| CS(=O)(=O)c1ccc(-c2nnc(Cl)cc2-c2ccc(Cl)cc2)cc1 | 190 °C |
| COc1ccc(-c2cc3ncnc(Nc4ccc5[nH]ccc5c4)c3s2)cn1 | 243 to 249 °C |
| O=C1Nc2ccc(Cl)cc2C(OCC2CC2)(C(F)(F)F)CN1C1CCC1 (centres undefined) | 156 °C |
| COC(=O)c1ccc2c(Cl)ccnc2c1 | 118 to 119 °C |
| Nc1ccc2nc(-c3ccc4c(c3)OCCO4)ncc2c1 | 179 to 182 °C |
| CC(C)c1cc(-c2ccc3c(c2)OCO3)[nH]c(=O)c1C#N | 266 to 268 °C |
| CC(=N)NN(C)C(=O)OC(C)(C)C | 187 to 189 °C |
| CC(C)(C)OC(=O)N1C(=O)c2ccccc2C1=O | 90 to 92 °C |
| Cn1nc(-c2c(F)cccc2Cl)nc1COc1ccc(C(C)(C)C)cc1 | 84 to 86 °C |
| CCCCCCCCOCC(CO)(CO)COCCCCCCCC | 30 to 32 °C |
| CC(C)c1cc(C=C2NC(=S)NC2=O)cc(C(C)C)c1O | 225 to 230 °C |
| COC(=N)c1nn(-c2c(Cl)cc(C(F)(F)F)cc2Cl)c(N)c1S(C)=O (centres undefined) | 179 to 180 °C |
| Cn1c(C(F)(F)F)cc(=O)n(-c2ccc(Cl)c3nc(C(C)(C)C)oc23)c1=O | 146 to 148 °C |
| CC[C@@H]1O[C@](/C=C/C2CC2)(C(F)(F)F)c2cc(F)ccc2NC1=O (relative stereo) | 148 to 149 °C |
| CC(C)(C)c1ccccc1N1CCN(C(=O)C2CCC(=O)N2)CC1 (centres undefined) | 290 °C |
| N#CC1(C2(O)CCCCC2)Cc2cc3c(cc21)NCC3 (centres undefined) | 168 to 170 °C |
| CCNn1cc(C(=O)O)c(=O)c2cc3c(cc21)OCO3 | 242 °C |
| CC(C)NCc1nc(-c2ncn3c2CN(C)C(=O)c2ccccc2-3)no1 | 142 to 144 °C |
| CC1(C)CC(=O)CC(C)(P(=O)(O)O)C1 (centres undefined) | 167 to 168 °C |
